pIC50, pKi: −log10 of the molar value. One block for each molecule: values may come before it.
Tests used:
[1] = target: T1, PSMA (Homo sapiens, UniProt Q04609); experiment: Time-dependence and reversibility of PSMA inhibition (100-fold dilution of inhibited enzyme); assay type: biochemical; conditions: for reversibility of PSMA inhibition: recovery of PSMA activity after 100-fold dilution of inhibited enzyme
[2] = target: T2, purified PSMA (Homo sapiens, UniProt Q04609); experiment: PMSA Inhibition Assay (HPLC, PAB-Glu-γ-Glu substrate); assay type: biochemical; conditions: for pIC50: read-out: IC50 against PSMA; for inhibitory potency / affinity for PSMA (in words): purified PSMA from LNCaP cells
T2 construct: against purified PSMA from LNCaP cells by our published method; endogenous in cells; host or cells: LNCaP cells
Description: Adapted from, Maung, J.; Mallari, J. P.; Girtsman, T. A.; Wu, L. Y.; Rowley, J. A.; Santiago, N. M.; Brunelle, A.; Berkman, C. E. Probing for a Hydrophobic a Binding Register in Prostate-Specific Membrane Antigen with Phenylalkylphosphonamidates. […] Med. Chem. 2004, 12, 4969.
Working solutions of the substrate (N-[4-(phenylazo)benzoyl]-glutamyl-g-glutamic acid, PAB-Glu-γ-Glu) and all inhibitors were made in TRIS buffer (50 mM, pH 7.4). Working solutions of purified PSMA were appropriately diluted in TRIS buffer (50 mM, pH 7.4) to provide from 15% to 20% conversion of substrate to product in the absence of inhibitor. A typical incubation mixture (final volume 250 μL) was prepared by the addition of either 25 μL of an inhibitor solution or 25 μL TRIS buffer (50 mM, pH 7.4) to 175 μL TRIS buffer (50 mM, pH 7.4) in a test tube. A volume of the 25 μL PAB-Glu-γ-Glu (100 μM) was added to the above solution. The enzymatic reaction was initiated by the addition of 25 μL of the PSMA working solution. In all cases, the final concentration of PAB-Glu-γ-Glu was 10 μM while the enzyme was incubated with five serially-diluted inhibitor concentrations to provide a range of inhibition from 10% to 90% inhibition. The reaction was allowed to proceed for 15 min with constant shaking at 37° C. and was terminated by the addition of 25 μL methanolic TFA (2% trifluoroacetic acid by volume in methanol) followed by vortexing. The quenched incubation mixture was quickly buffered by the addition of 25 μL K2HPO4 (0.1 M), vortexed, and centrifuged (10 min at 7000 g). An 85 μL aliquot of the resulting supernatant was subsequently quantified by HPLC. IC50 values were calculated using KaleidaGraph 3.6 (Synergy Software).
PABGγG and its hydrolytic product (PABG) were separated and quantified using an analytical reversed-phase HPLC column (Lichrosphere C18 5 μm, 150×4.6 mm; Phenomenex, Torrence, Calif.) with a mobile phase consisting of ACN/potassium phosphate [25 mM, pH 2.0 (adjusted with H3PO4)] at a respective volume ratio of 40:60.

[3] = tested on: LNCaP cells; experiment: Fluorescence/confocal microscopy labeling of PSMA-expressing cells; assay type: cell-based; conditions: PSMA-expressing prostate cancer cells; fluorescence microscopy
Description: (§1) These compounds have been subsequently derivatized with amine-reactive fluorescent dyes (FIG. 9) to specifically label PSMA-expressing prostate cancer cells. […] Confocal microscopy was conducted on both LNCaP and PC3 prostate cancer cells after treatment with L6-V1-21 and propidium iodide.
(§2) While propidium iodide stained the nuclei of both cell lines, only the surface of the PSMA-expressing LNCaP 6 cells were fluorescently labeled with L6-V1-21. The intensely labeled sites on these LNCaP cells are hypothesized to be locations in which PSMA has aggregated.
(§3) To confirm that LW-54-F5EX was specific for PSMA-expressing cells, both LNCaP and PC3 cells were treated with this compound. While DAPI (4′,6-diamidino-2-phenylindole) stained nuclear DNA in both cell lines, only LNCaP cells were fluorescently labeled with LW-54-F5EX.
(§4) In that experiment, both LNCaP and PC3 cells were treated with LW-54-5FAMX. While DAPI (4′,6-diamidino-2-phenylindole) stained nuclear DNA in both cell lines, only LNCaP cells were fluorescently labeled with LW-54-5FAMX.

[4] = tested on: PC3 cells; experiment: Fluorescence/confocal microscopy labeling of cells that do not express PSMA (negative control); assay type: cell-based; conditions: fluorescence microscopy
Description: as §1, §2, §3, §4

[5] = target: T1, PSMA; experiment: Inhibitor induced PSMA homodimer formation (Western blots); assay type: biochemical; conditions: treatment of PSMA with inhibitor
Description: As shown in the representative example in FIG. 6, covalent PSMA dimer formation mediated by T33 is both concentration dependent and time-dependent. […] Although we have not determined the mechanism of inhibition for T33, L36 and MP1D, it is clear that these agents represent a unique class of inhibitors of PSMA that may be used as covalent delivery vehicles specific for PSMA-expressing cancer cells. Based upon a cursory literature review, this is the first design and preparation of irreversible covalent modifiers of PSMA.

[6] = target: T3, MMP-2 (Homo sapiens, UniProt P08253); experiment: MMP-2 inhibition; assay type: biochemical; conditions: concentrations up to 10 μM
T3 sequence (P08253 110-660): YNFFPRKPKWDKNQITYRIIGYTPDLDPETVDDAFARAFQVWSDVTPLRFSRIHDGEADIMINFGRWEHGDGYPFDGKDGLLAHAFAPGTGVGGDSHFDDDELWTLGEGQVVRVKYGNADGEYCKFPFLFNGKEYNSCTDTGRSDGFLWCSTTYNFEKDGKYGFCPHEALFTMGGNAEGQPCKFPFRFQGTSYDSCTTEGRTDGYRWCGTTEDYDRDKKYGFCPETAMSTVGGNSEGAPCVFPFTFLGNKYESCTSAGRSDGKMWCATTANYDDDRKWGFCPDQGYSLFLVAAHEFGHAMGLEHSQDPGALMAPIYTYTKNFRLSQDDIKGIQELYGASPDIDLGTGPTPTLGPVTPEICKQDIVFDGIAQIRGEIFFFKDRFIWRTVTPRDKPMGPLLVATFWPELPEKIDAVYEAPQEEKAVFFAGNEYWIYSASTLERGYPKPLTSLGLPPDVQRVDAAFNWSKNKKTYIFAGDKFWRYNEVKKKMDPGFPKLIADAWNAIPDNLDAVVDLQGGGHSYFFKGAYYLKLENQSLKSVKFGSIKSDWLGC

[7] = target: matrix metalloproteinase-9 (MMP-9) (Homo sapiens, UniProt P14780); experiment: MMP-9 inhibition (specificity study); assay type: biochemical; conditions: preliminary study; read-out: Ki against MMP-9
Description: To determine that the design of the phosphoramidate inhibitors of the invention is specific to PSMA, a preliminary study was conducted with representative compounds from the T33 analog library (FIG. 1) with matrix metalloproteinase-9 (MMP-9). The MMP enzymes are zinc-dependent endopeptidases involved in the degradation of extracellular matrices.

T2 sequence (Q04609 whole entry): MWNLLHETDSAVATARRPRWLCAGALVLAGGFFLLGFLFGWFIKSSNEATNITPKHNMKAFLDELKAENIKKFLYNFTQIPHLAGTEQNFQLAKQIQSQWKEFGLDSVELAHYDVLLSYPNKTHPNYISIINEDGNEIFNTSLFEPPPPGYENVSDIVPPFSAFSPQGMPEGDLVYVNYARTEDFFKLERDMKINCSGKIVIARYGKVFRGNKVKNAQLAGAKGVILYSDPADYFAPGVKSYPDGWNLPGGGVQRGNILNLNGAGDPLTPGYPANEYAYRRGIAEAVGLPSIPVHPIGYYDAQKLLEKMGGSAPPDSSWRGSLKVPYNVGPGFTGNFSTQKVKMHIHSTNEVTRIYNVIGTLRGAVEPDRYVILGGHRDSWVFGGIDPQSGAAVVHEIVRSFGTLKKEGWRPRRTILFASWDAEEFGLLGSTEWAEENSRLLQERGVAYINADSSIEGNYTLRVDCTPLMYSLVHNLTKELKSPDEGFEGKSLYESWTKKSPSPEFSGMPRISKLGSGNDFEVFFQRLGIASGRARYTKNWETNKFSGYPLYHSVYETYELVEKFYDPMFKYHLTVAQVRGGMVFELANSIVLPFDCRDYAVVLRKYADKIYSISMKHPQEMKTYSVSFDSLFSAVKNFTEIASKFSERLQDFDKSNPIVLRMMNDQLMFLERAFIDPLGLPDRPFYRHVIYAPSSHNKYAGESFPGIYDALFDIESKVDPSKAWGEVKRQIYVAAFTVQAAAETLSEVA
T1 sequence (Q04609 whole entry): as above
Chain of matrix metalloproteinase-9 (MMP-9) (P14780 94-707, species assumed): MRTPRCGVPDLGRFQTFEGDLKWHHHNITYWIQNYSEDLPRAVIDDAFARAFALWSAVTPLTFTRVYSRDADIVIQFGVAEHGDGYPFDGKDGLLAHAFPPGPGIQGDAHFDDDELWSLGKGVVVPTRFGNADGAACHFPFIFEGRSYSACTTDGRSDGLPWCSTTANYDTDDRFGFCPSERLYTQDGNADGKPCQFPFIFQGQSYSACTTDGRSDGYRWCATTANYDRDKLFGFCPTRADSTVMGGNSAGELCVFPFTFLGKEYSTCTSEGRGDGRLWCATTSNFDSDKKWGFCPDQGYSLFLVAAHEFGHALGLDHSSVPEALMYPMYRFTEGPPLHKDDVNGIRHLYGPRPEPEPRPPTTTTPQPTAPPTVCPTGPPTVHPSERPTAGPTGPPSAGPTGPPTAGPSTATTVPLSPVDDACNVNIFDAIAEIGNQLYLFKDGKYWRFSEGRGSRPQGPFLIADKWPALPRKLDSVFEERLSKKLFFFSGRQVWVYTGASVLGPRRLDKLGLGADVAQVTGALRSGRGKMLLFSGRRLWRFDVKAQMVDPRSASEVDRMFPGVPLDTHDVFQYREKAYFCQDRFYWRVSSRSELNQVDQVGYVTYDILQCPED

Compound: O=C(O)CC[C@H](NP(=O)(O)OCC(CCc1ccccc1)C(=O)O)C(=O)O (stereo partly drawn) [MP1E, N-[(2-carboxy-4-phenylbutoxy)(hydroxy)phosphoryl] -L-glutamic acid]
reversibility of PSMA inhibition [1]: irreversible

Compound: O=C1C=CC2C(=C1)Oc1cc(O)ccc1C2c1ccc(NC(=S)N[C@@H](COP(=O)(O)N[C@@H](CCC(=O)O)C(=O)O)C(=O)O)cc1C(=O)O (stereo partly drawn) [Compound L6-V1-21, N-[{(2S)-2-carboxy-2-[({[3-carboxy-4-(6-hydroxy-3-oxo-9,9a-dihydro-3H-xanthen-9-yl)phenyl]amino}carbonothioyl)amino]ethoxy} (hydroxy)phosphoryl]-L-glutamic acid]
pIC50 [2]: 7.07
fluorescent labeling of LNCaP cells [3]: extensive cell-surface labeling
fluorescent labeling of PC3 cells [4]: no green fluorescent labeling

Compound: O=C1C=CC2C(=C1)Oc1cc(O)ccc1C2c1ccc(NC(=O)CSCCC(=O)N[C@@H](CCC(=O)N[C@@H](COP(=O)(O)N[C@@H](CCC(=O)O)C(=O)O)C(=O)O)C(=O)O)cc1C(=O)O (stereo partly drawn) [LW-54-F5EX, N-{3-[(2-{[3-carboxy-4-(6-hydroxy-3-oxo-9,9a-di hydro-3H-xanthen-9-yl)phenyl]amino}-2-oxoethyl)thio]propanoyl}-L-γ-glutamyl -O-[{[(1S)-1,3-dicarboxypropyl]amino}(hydroxy)phosphoryl]-L-serine]
fluorescent labeling of LNCaP cells [3]: extensive cell-surface labeling
fluorescent labeling of PC3 cells [4]: no green fluorescent labeling

Compound: O=C(O)CC[C@H](NP(=O)(O)OCCCCc1ccccc1)C(=O)O [MP1D, N-[hydroxy(4-phenylbutoxy)phosphoryl]-L-glutamic acid]
reversibility of PSMA inhibition [1]: irreversible inhibition
inhibitory potency / affinity for PSMA (in words) [2]: considerable affinity is maintained

Compound: O=C(O)CC[C@H](NP(=O)(O)OCc1ccc(-c2ccccc2)cc1)C(=O)O [NC-2-29, N-[(biphenyl-4-ylmethoxy) (hydroxy)phosphoryl]-L-glutamic acid]
pKi [7]: 2.30

The next lines start with the values.

reversibility of PSMA inhibition [1]: irreversible inhibitors
Compound: NCc1ccc(C(=O)N[C@@H](COP(=O)(O)N[C@@H](CCC(=O)O)C(=O)O)C(=O)O)cc1 [LW-39, N-{[(2S)-2-{[4-(aminomethyl)benzoyl]amino}-2-carboxyethoxy](hydroxy)phosphoryl}-L-glutamic acid]

time-dependence of PSMA inhibition [1]: time-dependent PSMA inhibition
reversibility of PSMA inhibition [1]: irreversible
inhibitory potency / affinity for PSMA (in words) [2]: superior inhibitory potency
pIC50 [2]: > 7.30
covalent PSMA homodimer formation [5]: formation of covalent PSMA homodimers
inhibition of MMP-2 [6]: no inhibition
Compound: O=C(O)CC[C@H](NP(=O)(O)OC[C@H](NC(=O)c1ccccc1)C(=O)O)C(=O)O [Compound T33, N-{[(2S)-2-(benzoylamino) -2-carboxyethoxy](hydroxy)phosphoryl}-L-glutamic acid]

reversibility of PSMA inhibition [1]: irreversible
inhibitory potency / affinity for PSMA (in words) [2]: superior inhibitory potency
covalent PSMA homodimer formation [5]: formation of covalent PSMA homodimers
Compound: CN(C(=O)c1ccccc1)[C@@H](COP(=O)(O)N[C@@H](CCC(=O)O)C(=O)O)C(=O)O [Compound L36, N-[{(2S)-2-[benzoyl(methyl)amino]-2-carboxyethoxy} (hydroxy)phosphoryl]-L-glutamic acid]

— patent publication US7696185B2, “Peptidomimetic inhibitors of PSMA, compounds comprising them, and methods of use” (Cancer Targered Technology LLC, priority 2006, dated 2010)
